Like-named read-outs stand apart in the source and are kept apart here.

One test concerns the target T1, mTORC2 (Homo sapiens, UniProt P42345+P62942).
T1 construct: endogenous in cells; host or cells: PC3 cells (human prostate adenocarcinoma)
Kind of test: Inhibition assay for mTORC2: phosphorylation of pAkt at Ser473, AlphaLISA in PC3 cells. It is filed as cell-based. As to conditions: for IC50: read-out: pIC50 mTORC2 (converted). How it is done: (§1) The IC50s of the inhibition of mTORC1 and mTORC2 were determined in vitro by determining the phosphorylation of pS6K at position Thr389 (mTORC1 inhibition) and pAkt at Ser473 (mTORC2 inhibition). In vitro studies were performed with AlphaLISA® technology using PC3 cells (Prostate Adenocarcinoma; Human (Homo sapiens)). The cells were seeded in 96 well plates and were treated for 24 hours with the different compounds. […] All analysis were performed using GraphPad Prism 7.0 (GraphPad Software, San Diego, USA).
For orientation: Alpha assays give light when donor and acceptor beads are brought close together.

Another test deals with T2, mTORC1 (Homo sapiens, UniProt P42345+P62942).
T2 construct: endogenous in cells; host or cells: PC3 cells (human prostate adenocarcinoma)
Kind of test: Inhibition assay for mTORC1: phosphorylation of pS6K at Thr389, AlphaLISA in PC3 cells. Format: cell-based. Conditions: for IC50: read-out: pIC50 mTORC1 (converted). As for the experimental part: as §1

Where [1] appears, read: PC3 cells, treated 24 hours, pAkt Ser473, AlphaLISA, C16 diastereomer mixtures not separated.
Setting [2] is: PC3 cells, treated 24 hours, pS6K Thr389, AlphaLISA, C16 diastereomer mixtures not separated.

T1 sequence (P62942 2-108 limits assumed, other chains not shown): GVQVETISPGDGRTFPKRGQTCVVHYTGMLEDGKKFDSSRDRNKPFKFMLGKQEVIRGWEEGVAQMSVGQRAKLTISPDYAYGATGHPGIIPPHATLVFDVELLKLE

As for `COCCOCCOC1C[C@@H]2CC[C@@H](C)[C@@](O)(O2)C(=O)C(=O)N2CCCCC2C(=O)O[C@H]([C@H](C)C[C@@H]2CC[C@@H](O)[C@H](OC)C2)CC(=O)[C@H](C)/C=C(\C)[C@@H](O)[C@@H](OC)C(=O)[C@H](C)C[C@H](C)/C=C/C=C/C=C/1C` (stereo partly drawn) [Compound 227], the figures for the IC50 on mTORC2 and on mTORC1 were above 10000 nM and below 0.316 nM, respectively.
With `COC1C[C@@H]2CC[C@@H](C)[C@@](O)(O2)C(=O)C(=O)N2CCCCC2C(=O)O[C@H]([C@H](C)C[C@@H]2CC[C@@H](OCCCN3CCOCC3)[C@H](OC)C2)CC(=O)[C@H](C)/C=C(\C)[C@@H](O)[C@@H](OC)C(=O)[C@H](C)C[C@H](C)/C=C/C=C/C=C/1C` (stereo partly drawn) [Compound 322], the IC50 was below 1000 nM on mTORC2 and below 0.316 nM on mTORC1.
The like results for `CO[C@@H]1C[C@H](C[C@@H](C)[C@@H]2CC(=O)[C@H](C)/C=C(\C)[C@@H](O)[C@@H](OC)C(=O)[C@H](C)C[C@H](C)/C=C/C=C/C=C(\C)C(c3cc(C)cs3)C[C@@H]3CC[C@@H](C)[C@@](O)(O3)C(=O)C(=O)N3CCCCC3C(=O)O2)CC[C@H]1O` (stereo partly drawn) [Compound 203] were, in that order, 1000 to 10000 nM and above 3.16 nM.
The like results for `CO[C@H](COC1C[C@@H]2CC[C@@H](C)[C@@](O)(O2)C(=O)C(=O)N2CCCCC2C(=O)O[C@H]([C@H](C)C[C@@H]2CC[C@@H](O)[C@H](OC)C2)CC(=O)[C@H](C)/C=C(\C)[C@@H](O)[C@@H](OC)C(=O)[C@H](C)C[C@H](C)/C=C/C=C/C=C/1C)c1ccccc1` (stereo partly drawn) [Compound 206] were, in that order, 1000 to 10000 nM and 0.316 to 3.16 nM.
The like results for `COC1C[C@@H]2CC[C@@H](C)[C@@](O)(O2)C(=O)C(=O)N2CCCCC2C(=O)O[C@H]([C@H](C)C[C@@H]2CC[C@@H](OCCN3CCC(O)CC3)[C@H](OC)C2)CC(=O)[C@H](C)/C=C(\C)[C@@H](O)[C@@H](OC)C(=O)[C@H](C)C[C@H](C)/C=C/C=C/C=C/1C` (stereo partly drawn) [Compound 353] were, in that order, below 1000 nM and below 0.316 nM.
Regarding `COC1C[C@@H]2CC[C@@H](C)[C@@](O)(O2)C(=O)C(=O)N2CCCCC2C(=O)O[C@H]([C@H](C)C[C@@H]2CC[C@@H](OCCN3CCOCC3)[C@H](OC)C2)CC(=O)[C@H](C)/C=C(\C)[C@@H](O)[C@@H](OC)C(=O)[C@H](C)C[C@H](C)/C=C/C=C/C=C/1C` (stereo partly drawn) [Compound 325], the IC50 at mTORC2 is below 1000 nM; on mTORC1 it was below 0.316 nM.
For the molecule `CO[C@@H]1C[C@H](C[C@@H](C)[C@@H]2CC(=O)[C@H](C)/C=C(\C)[C@@H](O)[C@@H](OC)C(=O)[C@H](C)C[C@H](C)/C=C/C=C/C=C(\C)C(OCCO)C[C@@H]3CC[C@@H](C)[C@@](O)(O3)C(=O)C(=O)N3CCCCC3C(=O)O2)CC[C@H]1OCCCN1CCO[C@H](C)C1` (stereo partly drawn) [Compound 43], the “pIC50 mTORC2” value at mTORC2 (setting [1]) was “B (5 to 6 as B)”. For the same molecule, at mTORC1 (setting [2]), the “pIC50 mTORC1” value is on record as “A (pIC50 for mTORC1 of >9.5 as A)”.
With `COC1C[C@@H]2CC[C@@H](C)[C@@](O)(O2)C(=O)C(=O)N2CCCCC2C(=O)O[C@H]([C@H](C)C[C@@H]2CC[C@@H](OC(=O)NCCc3c[nH]cn3)[C@H](OC)C2)CC(=O)[C@H](C)/C=C(\C)[C@@H](O)[C@@H](OC)C(=O)[C@H](C)C[C@H](C)/C=C/C=C/C=C/1C` (stereo partly drawn) [Compound 364], the IC50 at mTORC2 is below 1000 nM; at mTORC1, below 0.316 nM.
On to `COC1C[C@@H]2CC[C@@H](C)[C@@](O)(O2)C(=O)C(=O)N2CCCCC2C(=O)O[C@H]([C@H](C)C[C@@H]2CC[C@@H](OC(=O)NCc3ccccn3)[C@H](OC)C2)CC(=O)[C@H](C)/C=C(\C)[C@@H](O)[C@@H](OC)C(=O)[C@H](C)C[C@H](C)/C=C/C=C/C=C/1C` (stereo partly drawn) [Compound 333], for which the IC50 is below 1000 nM on mTORC2 and below 0.316 nM on mTORC1.
On to `COC1C[C@@H]2CC[C@@H](C)[C@@](O)(O2)C(=O)C(=O)N2CCCCC2C(=O)O[C@H]([C@H](C)C[C@@H]2CC[C@@H](OC(=O)NCCCN3CCOCC3)[C@H](OC)C2)CC(=O)[C@H](C)/C=C(\C)[C@@H](O)[C@@H](OC)C(=O)[C@H](C)C[C@H](C)/C=C/C=C/C=C/1C` (stereo partly drawn) [Compound 344], for which the figures for the IC50 at mTORC2 and on mTORC1 were below 1000 nM and below 0.316 nM, respectively.
For the molecule `COC1C[C@@H]2CC[C@@H](C)[C@@](O)(O2)C(=O)C(=O)N2CCCCC2C(=O)O[C@H]([C@H](C)C[C@@H]2CC[C@@H](OC(=O)N(C)CCN3CCOCC3)[C@H](OC)C2)CC(=O)[C@H](C)/C=C(\C)[C@@H](O)[C@@H](OC)C(=O)[C@H](C)C[C@H](C)/C=C/C=C/C=C/1C` (stereo partly drawn) [Compound 356], the IC50 is below 1000 nM at mTORC2 and below 0.316 nM on mTORC1.
The corresponding values for `CO[C@@H]1C[C@H](C[C@@H](C)[C@@H]2CC(=O)[C@H](C)/C=C(\C)[C@@H](O)[C@@H](OC)C(=O)[C@H](C)C[C@H](C)/C=C/C=C/C=C(\C)C(OCC3CCOCC3)C[C@@H]3CC[C@@H](C)[C@@](O)(O3)C(=O)C(=O)N3CCCCC3C(=O)O2)CC[C@H]1O` (stereo partly drawn) [Compound 226] are above 10000 nM and 0.316 to 3.16 nM.
Regarding `COCCOC1CC2CCC(C)C(O)(O2)C(=O)C(=O)N2CCCCC2C(=O)OC(C(C)CC2CCC(OCC(O)CO)C(OC)C2)CC(=O)C(C)C=C(C)C(O)C(OC)C(=O)C(C)CC(C)C=CC=CC=C1C` (stereo not drawn) [Compound 45], on mTORC2 (setting [1]), the “pIC50 mTORC2” value is reported as “B (5 to 6 as B)”. Moreover, at mTORC1 (setting [2]), the “pIC50 mTORC1” value is listed as “A (pIC50 for mTORC1 of >9.5 as A)”.
In the case of `COCCO[C@@H]1CC[C@@H](C[C@@H](C)[C@@H]2CC(=O)[C@H](C)/C=C(\C)[C@@H](O)[C@@H](OC)C(=O)[C@H](C)C[C@H](C)/C=C/C=C/C=C(\C)C(OC)C[C@@H]3CC[C@@H](C)[C@@](O)(O3)C(=O)C(=O)N3CCCCC3C(=O)O2)C[C@H]1OC` (stereo partly drawn) [Compound 315, (1R,9S,12S,15R,16E,18R,19R,21R,23S,24E,26E,28E,30S,32S,35R)-1,18-dihydroxy-19,30-dimethoxy-12-[(1R)-2-[(1S,3R,4R)-3-methoxy-4-(2-methoxyethoxy)cyclohexyl]-1-methyl-ethyl]-15,17,21,23,29,35-hexamethyl-11,36-dioxa-4-azatricyclo[30.3.1.0^4,9]hexatriaconta-16,24,26,28-tetraene-2,3,10,14,20-pentone], the figures for the IC50 at mTORC2 and at mTORC1 were below 1000 nM and below 0.316 nM, respectively.
As to `CO[C@@H]1C[C@H](C[C@@H](C)[C@@H]2CC(=O)[C@H](C)/C=C(\C)[C@@H](O)[C@@H](OC)C(=O)[C@H](C)C[C@H](C)/C=C/C=C/C=C(\C)C(OCCO)C[C@@H]3CC[C@@H](C)[C@@](O)(O3)C(=O)C(=O)N3CCCC[C@H]3C(=O)O2)CC[C@H]1OCCN1CCCCC1` (mixture of isomers) [Compound 61], the IC50 at mTORC2 (setting [1]) is above 10000 nM; on mTORC1 (setting [2]), 0.316 to 3.16 nM.
Turning to `CO[C@@H]1C[C@H](C[C@@H](C)[C@@H]2CC(=O)[C@H](C)/C=C(\C)[C@@H](O)[C@@H](OC)C(=O)[C@H](C)C[C@H](C)/C=C/C=C/C=C(\C)C(OC3COC3)C[C@@H]3CC[C@@H](C)[C@@](O)(O3)C(=O)C(=O)N3CCCCC3C(=O)O2)CC[C@H]1O` (stereo partly drawn) [Compound 218], the IC50 on mTORC2 is above 10000 nM; on mTORC1 it was 0.316 to 3.16 nM.
In the case of `COC1CC(CC(C)C2CC(=O)C(C)C=C(C)C(O)C(OC)C(=O)C(C)CC(C)C=CC=CC=C(C)C(OCCO)CC3CCC(C)C(O)(O3)C(=O)C(=O)N3CCCCC3C(=O)O2)CCC1OCCCN1CCOCC1C` (mixture of isomers) [Compound 2], the “pIC50 mTORC2” value on mTORC2 (setting [1]) is reported as “A (PIC50 for mTORC2 of <5 as A)”. In addition, on mTORC1 (setting [2]), the “pIC50 mTORC1” value is recorded as “A (pIC50 for mTORC1 of >9.5 as A)”.
For `COC1C[C@@H]2CC[C@@H](C)[C@@](O)(O2)C(=O)C(=O)N2CCCCC2C(=O)O[C@H]([C@H](C)C[C@@H]2CC[C@@H](OCCCN3CCN(C)CC3)[C@H](OC)C2)CC(=O)[C@H](C)/C=C(\C)[C@@H](O)[C@@H](OC)C(=O)[C@H](C)C[C@H](C)/C=C/C=C/C=C/1C` (stereo partly drawn) [Compound 332], the IC50 on mTORC2 is below 1000 nM; on mTORC1, below 0.316 nM.
The corresponding values for `CO[C@@H]1C[C@H](C[C@@H](C)[C@@H]2CC(=O)[C@H](C)/C=C(\C)[C@@H](O)[C@@H](OC)C(=O)[C@H](C)C[C@H](C)/C=C/C=C/C=C(\C)C(OCCO)C[C@@H]3CC[C@@H](C)[C@@](O)(O3)C(=O)C(=O)N3CCCCC3C(=O)O2)CC[C@H]1O` (stereo partly drawn) [Compound 219, (1R,9S,12S,15R,16E,18R,19R,21R,23S,24E,26E,28E,32S,35R)-1,18-dihydroxy-30-(2-hydroxyethoxy)-12-[(1R)-2-[(1S,3R,4R)-4-hydroxy-3-methoxy-cyclohexyl]-1-methyl-ethyl]-19-methoxy-15,17,21,23,29,35-hexamethyl-11,36-dioxa-4-azatricyclo[30.3.1.0^4,9]hexatriaconta-16,24,26,28-tetraene-2,3,10,14,20-pentone] are above 10000 nM and 0.316 to 3.16 nM.
Consider `COC1CC2CCC(C)C(O)(O2)C(=O)C(=O)N2CCCCC2C(=O)OC(C(C)CC2CCC(OCCCN3CCCC(O)C3)C(OC)C2)CC(=O)C(C)C=C(C)C(O)C(OC)C(=O)C(C)CC(C)C=CC=CC=C1C` (stereo not drawn) [Compound 340], for which the IC50 on mTORC2 is below 1000 nM; at mTORC1 it was below 0.316 nM.
On to `COCCCO[C@@H]1CC[C@@H](C[C@@H](C)[C@@H]2CC(=O)[C@H](C)/C=C(\C)[C@@H](O)[C@@H](OC)C(=O)[C@H](C)C[C@H](C)/C=C/C=C/C=C(\C)C(OCCOC)C[C@@H]3CC[C@@H](C)[C@@](O)(O3)C(=O)C(=O)N3CCCCC3C(=O)O2)C[C@H]1OC` (stereo partly drawn) [Compound 14], for which the “pIC50 mTORC2” value at mTORC2 (setting [1]) is recorded as “A (PIC50 for mTORC2 of <5 as A)”. For the same molecule, the “pIC50 mTORC1” value at mTORC1 (setting [2]) is recorded as “A (pIC50 for mTORC1 of >9.5 as A)”.

The values are drawn from patent US11702429B2, “mTORC modulators and uses thereof” (Aeovian Pharmaceuticals, Inc., priority 2019, dated 2023).
